Columns and labels:
HO-1 = test: Renal cortical HO-1 mRNA and protein after FeS, SnPP or B12; assay type: in vivo, mice; conditions: for HO-1 protein increases (FIG. 21): within 4 hrs and persists for 18 hrs of IV injection
Description: (§1) Methods. Male CD-1 mice (25-40 grams) Charles River, Wilmington, MA) were used for all experiments. They were housed under standard vivarium conditions with free food and water access. All experiments were approved by the Fred Hutchinson Cancer Research Center IACUC in accordance with NIH guidelines.
Effects of FeS, SnPP, and B12 on renal cortical induction of heme oxygenase 1 (HO-1). The following experiments assessed the effects of FeS, SnPP, and B12 on the possible induction of the cytoprotective protein HO-1. To this end, mice were injected with each of these agents, as noted above. Either 4 or 18 hrs later, they were anesthetized and the kidneys were removed through a midline abdominal incision. The renal cortices were dissected on ice and then extracted for protein and mRNA. The samples were then assayed for HO-1 protein by ELISA, and HO-1 mRNA by RT-PCR, factored by GAPDH levels. Five normal mice provided control values.

Male CD-1 mice = test: Maleate model of AKI (FeS, SnPP, FeS+SnPP); assay type: in vivo; conditions: 1 mg FeS or 1 μmole SnPP IV alone 18 hrs before maleate
Description: as §1
Effects of Fe sucrose (FeS)/tin protoporphyrin (SnPP) on AKI severity. Maleate model of AKI. When injected into rodents, maleate undergoes relatively selective proximal tubule cell uptake via organic anion transporters. Once intracellular accumulation occurs, maleate is a preferred substrate for succinyl-CoA: 3-oxoacid CoA transferase. […] Ample levels of CoA are essential for fatty acid “activation”, allowing for their subsequent metabolism through the Krebs cycle, yielding ATP. In the absence of this process, proximal tubule ATP depletion and cell injury result. Additionally, maleate conjugates the sulfhydryl group of glutathione (GSH), culminating in GSH depletion and potential oxidant tubular stress.
The following experiment tested whether FeS, SnPP or combined FeS+SnPP can mitigate this form of acute kidney injury (AKI). […] The severity of kidney injury was assessed by determining plasma blood urea nitrogen (BUN) and plasma creatinine (PCr) concentrations.

| Substance | HO-1 protein increases (FIG. 21) (HO-1) | Renal cortical HO-1 protein levels (HO-1; 18 hr time point) | Severity of maleate-induced renal injury (BUN, PCr) (Male CD-1 mice) |
| --- | --- | --- | --- |
| cyanocobalamin [B12] | marked HO-1 protein increases | – | – |
| iron sucrose [FeS] | marked HO-1 protein increases | remained elevated | Neither SnPP alone nor FeS alone significantly altered |

From patent US20250195556A1, “COMPOSITIONS, KITS, AND METHODS TO INDUCE ACQUIRED CYTORESISTANCE USING STRESS PROTEIN INDUCERS” (FRED HUTCHINSON CANCER RESEARCH CENTER, priority 2014, published 2025)
